Assay results from US8198269B2, “Fused aminodihydrothiazine derivative” (Eisai R&D Management Co., Ltd., priority 2008, dated 2012).

Tested on: Aβ42 production
Test: Quantification of Aβ peptide in culture of neurons from rat fetus brain (Aβ ELISA)
Assay type: cell-based
Details: Neuron, 72 h; rat primary neuronal culture (embryonic day 18 Wistar rat cerebral cortex); cultured three days after addition of compound; Aβ42 concentration in the medium by ELISA; read-out: Aβ42 production reducing effect IC50
Method: Quantification of Aβ Peptide in Culture of Neurons from Rat Fetus Brain
(1) Rat Primary Neuronal Culture
Primary neuronal cultures were prepared from the cerebral cortex of embryonic day 18 Wistar rats (Charles River Japan, Yokohama, Japan). Specifically, the embryos were aseptically removed from pregnant rats under ether anesthesia. The brain was isolated from the embryo and immersed in an ice-cold L-15 medium (such as Invitrogen Corp. Cat #11415-064, Carlsbad, Calif., USA, or SIGMA L1518). The cerebral cortex was collected from the isolated brain under a stereoscopic microscope. The cerebral cortex fragments collected were enzymatically treated in an enzyme solution containing 0.25% trypsin (Invitrogen Corp. Cat #15050-065, Carlsbad, Calif., USA) and 0.01% DNase (Sigma D5025, St. Louis, Mo., USA) at 37° C. for 30 minutes to disperse the cells. Here, the enzymatic reaction was stopped by adding inactivated horse serum to the solution. The enzymatically treated solution was centrifuged at 1,500 rpm for five minutes to remove the supernatant. 5 to 10 ml of a medium was added to the resulting cell mass. […]

NC1=N[C@@]2(c3cc(NC(=O)c4cnc(OCF)cn4)ccc3F)COC[C@@H](F)[C@H]2CS1 [Example 21, N-[3-((4aS,5S,8aS)-2-amino-5-fluoro-4,4a,5,6,8,8a-hexahydro-7-oxa-3-thia-1-azanaphthalen-8a-yl)-4-fluorophenyl]-5-fluoromethoxypyrazine-2-carboxamide]
IC50: 0.01 µM
